In patent publication US20040231558A1, “Water-color ink” (priority 2001, published 2004):

What was measured:
[1] = Evaluation of storage stability of ink (40° C. for 3 months, insoluble matter and clogging); format: physicochemical; conditions: recording liquid stored at 40° C. for 3 months; for (C) storage stability: insoluble matter and clogging
Protocol: (§1) The prepared ink was filled in an ink cartridge for a piezo-type ink-jet printer EM-930C (manufactured by Seiko Epson). The printing was performed with this printer, and the light fastness was evaluated. Further, the storage stability of the ink was evaluated.
(C) Evaluation of Storage Stability of Ink:
After a recording liquid was stored at 40° C. for 3 months, it was observedwhether or not an insoluble matterwas precipitated, and whether or not clogging occurred after continuous recording with the foregoing printer for a long period of time.

[2] = Evaluation of moisture resistance (image-recorded paper at 40° C. and humidity 85%, visual observation); format: physicochemical; conditions: for (B) moisture resistance: image-recorded paper at 40° C. and humidity 85%, visually observed
[3] = Solubility in water of the salt
[4] = Evaluation of light fastness-2 (OD value of printed portion after 400 hours xenon fadeometer); format: physicochemical; conditions: for (A)-2 light fastness-2: ink prepared as in Example 1 from the salt named in the row, OD value of printed portion after 400 hours xenon fadeometer
Protocol: as §1
(A)-2 Evaluation of Light Fastness-2
Printing density (OD value) was measured after irradiating a printed-portion with light for 400 hours using axenon fadeometer (manufactured by Suga Shikenki), and the light fastness was evaluated.

[5] = Evaluation of light fastness-1 (OD value of printed portion after 100 hours xenon fadeometer); format: physicochemical; conditions: ink prepared as in Example 1 from the salt named in the row; OD value of printed portion after 100 hours xenon fadeometer
Protocol: as §1
(A)-1 Evaluation of Light Fastness-1
Printing density (OD value) was measured after irradiating a printed portion with light for 100 hours using a xenon fadeometer (manufactured by Suga Shikenki) to evaluate the light fastness.

| SMILES | (C) storage stability [1] | (B) moisture resistance [2] | Solubility in water ([3]; % by weight) [%] | (A)-2 light fastness-2 [4] | (A)-1 light fastness-1 [5] | Solubility in water ([3]; salt type M1 to M4) [%] | (A)-2 light fastness-2 ([4]; NH(CH2CH=CH2)3 salt form) | (A)-2 light fastness-2 ([4]; Na salt form) | Evaluation of ink storage stability ([1]; precipitation and clogging) | Evaluation of moisture resistance ([2]; image-recorded paper at 40° C., humidity 85%, visual observation) | Evaluation of light fastness-2 ([4]; ink with 3% dye printed with ink-jet printer EM-930C, 400 hours xenon fadeometer, OD value vs before irradiation) |
| --- | --- | --- | --- | --- | --- | --- | --- | --- | --- | --- | --- |
| C[N+](C)(C)C.C[N+](C)(C)C.Cc1c(N=Nc2cc(C(=O)[O-])ccc2C(=O)[O-])c(O)[nH]c(=O)c1C#N | ο | ο | ≥ 3 | ♯ | – | – | – | – | – | – | – |
| C[N+](C)(C)C.C[N+](C)(C)C.C[N+](C)(C)C.C[N+](C)(C)C.Cc1c(N=Nc2cc(C(=O)[O-])ccc2C(=O)[O-])c(O)n(CCNc2nc(Cl)nc(NCCn3c(O)c(N=Nc4cc(C(=O)[O-])ccc4C(=O)[O-])c(C)c(C#N)c3=O)n2)c(=O)c1C#N | ∘ | ⊚ | ≥ 5 | ∘ | ⊚ | – | – | – | – | – | – |
| Cc1c(N=Nc2cccc(C(=O)O)c2C(=O)O)c(O)[nH]c(=O)c1C#N [Compound No. 1] | ◯ | ◯ | – | ⊚ | ⊚ | >3 | – | – | – | – | – |
| Cc1c(N=Nc2cc(C(=O)O)ccc2C(=O)O)c(O)[nH]c(=O)c1C#N [Compound No. 11] | ◯ | ◯ | – | ⊚ | ⊚ | >3 | – | – | – | – | – |
| Cc1c(C(=O)O)ccc(C(=O)O)c1N=Nc1c(O)[nH]c(=O)c(C#N)c1C [Compound No. 24] | ◯ | ◯ | – | ◯ | ⊚ | >5 | – | – | – | – | – |
| Cc1c(N=Nc2cc(C(=O)O)ccc2C(=O)O)c(O)n(CCNC(=O)c2cc(C(=O)O)c(C(=O)NCCn3c(O)c(N=Nc4cc(C(=O)O)ccc4C(=O)O)c(C)c(C#N)c3=O)cc2C(=O)O)c(=O)c1C#N [Compound No. 279] | ◯ | ⊚ | – | ⊚ | ⊚ | – | – | – | – | – | – |
| Cc1c(N=Nc2cc(Cl)cc(C(=O)O)c2C(=O)O)c(O)[nH]c(=O)c1C#N [compound 3] | ◯ | ◯ | – | ⊚ | ⊚ | >3 | – | – | – | – | – |
| Cc1c(N=Nc2cc(S(=O)(=O)O)c(C(=O)O)cc2C(=O)O)c(O)[nH]c(=O)c1C#N [compound 7] | ◯ | Δ | – | ⊚ | ⊚ | >10 | – | – | – | – | – |
| CNC(=O)c1cc(C(=O)O)c(N=Nc2c(O)[nH]c(=O)c(C#N)c2C)cc1C(=O)O [compound 14] | ◯ | ◯ | – | ⊚ | ⊚ | >3 | – | – | – | – | – |
| Cc1c(N=Nc2c(C(=O)O)cccc2C(=O)O)c(O)[nH]c(=O)c1C#N [compound 16] | ◯ | Δ | – | ⊚ | ⊚ | >5 | – | – | – | – | – |
| Cc1c(N=Nc2cccc(C(=O)O)c2C(=O)O)c(O)n(CC(O)C(O)C(O)C(O)C(O)CO)c(=O)c1C#N (stereo not drawn) [compound 29] | ◯ and Δ | ◯ | – | ◯ and Δ | ⊚ | – | – | – | – | – | – |
| Cc1c(N=Nc2cc(C(=O)O)ccc2C(=O)O)c(O)n(CCO)c(=O)c1C#N [compound 37] | ◯ and Δ | ◯ | – | ⊚ and Δ | ⊚ | – | – | – | – | – | – |
| Cc1c(N=Nc2c(C(=O)O)cccc2C(=O)O)c(O)n(C(O)CO)c(=O)c1C#N (stereo not drawn) [compound 43] | ◯ | Δ | – | ⊚ | ⊚ | >5 | – | – | – | – | – |
| Cc1c(N=Nc2cccc(C(=O)O)c2C(=O)O)c(O)n(C(=O)O)c(=O)c1C#N [compound 46] | Δ | ◯ | – | Δ | ⊚ | >5 | – | – | – | – | – |
| Cc1c(N=Nc2cccc(C(=O)O)c2C(=O)O)c(O)n(CCCC(=O)O)c(=O)c1C#N [compound 48] | ◯ | ◯ | – | ◯ | ⊚ | >5 | – | – | – | – | – |
| Cc1c(N=Nc2cccc(C(=O)O)c2C(=O)O)c(O)n(C(C(=O)O)C(=O)O)c(=O)c1C#N [compound 52] | ◯ and Δ | Δ and ◯ | – | ⊚ and Δ | ⊚ | – | – | – | – | – | – |
| Cc1c(N=Nc2cccc(C(=O)O)c2C(=O)O)c(O)n(Cc2ccc(C(=O)O)cc2)c(=O)c1C#N [compound 58] | ◯ | Δ | – | ◯ | ⊚ | >5 | – | – | – | – | – |
| Cc1c(N=Nc2cc(C(=O)O)ccc2C(=O)O)c(O)n(CC(=O)O)c(=O)c1C#N [compound 77] | ◯ | Δ | – | ⊚ | ⊚ | >5 | – | – | – | – | – |
| Cc1c(N=Nc2cc(C(=O)O)ccc2C(=O)O)c(O)n(CCC(=O)O)c(=O)c1C#N [compound 78] | ◯ | ◯ | – | – | ⊚ | – | ◯ | ⊚ | – | – | – |
| Cc1c(N=Nc2cc(C(=O)O)ccc2C(=O)O)c(O)n(Cc2ccc(C(=O)O)c(C(=O)O)c2)c(=O)c1C#N [compound 92] | ◯ | ⊚ | – | ⊚⊚ | ⊚ | – | – | – | – | – | – |
| Cc1c(N=Nc2c(C(=O)O)cccc2C(=O)O)c(O)n(CCC(=O)O)c(=O)c1C#N [compound 95] | ◯ and Δ | Δ and ◯ | – | ⊚ and Δ | ⊚ | – | – | – | – | – | – |
| Cc1c(N=Nc2cccc(C(=O)O)c2C(=O)O)c(O)n(CS(=O)(=O)O)c(=O)c1C#N [compound 105] | ◯ | Δ | – | ◯ | ⊚ | >5 | – | – | – | – | – |
| Cc1c(N=Nc2cccc(C(=O)O)c2C(=O)O)c(O)n(CCS(=O)(=O)O)c(=O)c1C#N [compound 106] | ◯ and Δ | Δ and ◯ | – | ⊚ and Δ | ⊚ | >5 | – | – | – | – | – |
| Cc1c(N=Nc2cc(C(=O)O)ccc2C(=O)O)c(O)n(CCS(=O)(=O)O)c(=O)c1C#N [compound 136] | ◯ and Δ | Δ and ◯ | – | ⊚ and Δ and ◯ | ⊚ | – | – | – | – | – | – |
| Cc1c(N=Nc2cc(S(=O)(=O)O)ccc2C(=O)O)c(O)n(CCC(=O)O)c(=O)c1C#N [compound 218] | ◯ | – | – | ⊚ | ⊚ | >5 | – | – | – | – | – |
| Cc1c(N=Nc2cc(C(=O)[O-])ccc2C(=O)[O-])c(O)[nH]c(=O)c1C#N.[K+].[K+] [potassium salt of compound No. 11] | – | – | ≥ 3 | – | – | – | – | – | ο | ο | ♯ |
